The values below come from patent EP0510473A1, “Thienyl-nonatetraenoic acid derivatives with anti-rheumatic activity” (F. HOFFMANN-LA ROCHE AG, priority 1991, dated 1992).

Data set [1] relates to adjuvant arthritis. The data set is described as follows: Established adjuvant arthritis model (chronic adjuvant arthritis test). As to conditions: 7 days; for Change in Paw Volume (ml) / Change in body weight(g): difference from day 21 to day 28; for % Change in plasma fibrinogen: relative to vehicle-treated arthritic animals. The data set is classed as in vivo, male Charles River Lewis rats.

Data set [2] relates to adjuvant arthritis. Described as above. It counts as in vivo, male Charles River Lewis rats. Particulars: for Change in Paw Volume (ml) / Change in body weight(g): difference from day 21 to day 28; for % Change in plasma fibrinogen: relative to vehicle-treated arthritic animals. How it is done: That the compounds of this invention are effective anti-arthritic agents can be seen from the results obtained when these compounds are administered to rats in accordance with the chronic adjuvant arthritis test system disclosed in Billingham and Davies "Handbook of Experimental Pharmacology" (editors J.R. Vane and S.H. Ferreira) Vol. 50/II, pg. 108-144, Springer-Verlag, Berlin, 1979). In this procedure, adjuvant arthritis was induced by the injection on day 0 to 0.10 ml of adjuvant (a suspension of heat-killed, dessicated Mycobacterium butyricum, 0.5% (w/v), in heavy mineral oil containing 0.2% digitonin) subplantarly into the right hind paw ("developing" model) or the base of the tail ("established" model) of male Charles River Lewis rats (120-140 g) that were housed individually and given food and water ad lib. Paw volumes (both hind paws) were measured immediately after injection of the adjuvant. Paw volumes were also measured at selected time intervals to follow the development of inflammation-induced swelling in the arthritic paws by immersion of the paw to the level of the lateral malleolus in a mercury plethysmograph. In the established adjuvant arthritis model [Table 2], the arthritis was allowed to develop untreated for 21 days and then the arthritic animals were divided into experimental groups with approximately equal mean hind paw volumes. Starting on day 21, the arthritic animals were treated by intubation once a day with drugs for 7 days (Tween 80 as vehicle). Arthritic control animals received daily doses of the vehicle only. On day 28, the animals were sacrificed, plasma was collected and plasma fibrinogen levels were determined as described above. Antiinflammatory activity was determined by comparing the change in paw swelling in drug-treated arthritic animals (combined hind paw volume on day 28 minus combined hind paw volume on day 21) with the change in paw swelling in vehicle-treated arthritic animals. Drug-induced changes in plasma fibrinogen were also used to assess the antiinflammatory effects of the test drugs.

The nature of data set [3]: Serum triglycerides and cholesterol in normal animals treated for 14 days. Particulars: for Cholesterol (% change): serum, normal rats, vs vehicle-treated normal rats. It counts as in vivo, rats. The protocol:
Normal animals were also treated with the test retinoids for 14 days and serum samples were collected for the determination of serum triglycerides and cholesterol. Triglyceride and cholesterol levels in the drug-treated animals were compared with triglyceride and cholesterol levels in vehicle-treated animals.

Data set [4] relates to adjuvant arthritis. The data set is described as follows: Developing adjuvant arthritis model (chronic adjuvant arthritis test). Particulars: for % Change in Paw Volume (day 23) left / % Change in Paw Volume (day 23) right / % Change in plasma fibrinogen: vs vehicle-treated arthritic animals; for Body Weight gain(g): body weight on day 23 minus day 0. The data set is classed as in vivo, male Charles River Lewis rats. The protocol:
That the compounds of this invention are effective anti-arthritic agents can be seen from the results obtained when these compounds are administered to rats in accordance with the chronic adjuvant arthritis test system disclosed in Billingham and Davies "Handbook of Experimental Pharmacology" (editors J.R. Vane and S.H. Ferreira) Vol. 50/II, pg. 108-144, Springer-Verlag, Berlin, 1979). In this procedure, adjuvant arthritis was induced by the injection on day 0 to 0.10 ml of adjuvant (a suspension of heat-killed, dessicated Mycobacterium butyricum, 0.5% (w/v), in heavy mineral oil containing 0.2% digitonin) subplantarly into the right hind paw ("developing" model) or the base of the tail ("established" model) of male Charles River Lewis rats (120-140 g) that were housed individually and given food and water ad lib. Paw volumes (both hind paws) were measured immediately after injection of the adjuvant. Paw volumes were also measured at selected time intervals to follow the development of inflammation-induced swelling in the arthritic paws by immersion of the paw to the level of the lateral malleolus in a mercury plethysmograph. In the developing adjuvant arthritis model [Table 1], drugs were administered once a day (starting on the day of adjuvant injection and continuing for 23 days) by intubation using Tween 80 (polyoxyethylene sorbitan mono-oleate) at a dose of 0.25 ml/100 g body weight as the vehicle. Arthritic control rats received daily doses of the vehicle only. On day 23, i.e., approximately 24 hours after the last dose of drug, the rats were sacrificed, plasma was collected and plasma fibrinogen levels were determined (ammonium sulfate turbidimetric method) as described by Exner et al., Amer. J. Clin. Path., 71:521-527 (1979). Anti-inflammatory activity of the test drugs were determined by comparing the extent of paw swelling (paw volume on day 23 minus the paw volume on day 0) in drug-treated arthritic rats with the extent of paw swelling in the vehicle-treated arthritic rats. Drug induced decreases in the level of plasma fibrinogen, an acute phase protein that is elevated in the plasma of rats with adjuvant-induced arthritis, were also used to quantitiate the anti-inflammatory activity.

Setting [5] is: 75 µMoles/Kg p.o. tween 80, 7 days.
[6] abbreviates: 25 μ Moles/Kg Po. Tween 80, daily for 23 days.
Where [7] appears, read: 75 μ Moles/Kg Po. Tween 80, daily for 23 days.

Marks after values point to notes of the source that are not given here.

With `CCCCOc1ccsc1/C=C/C(C)=C/C=C/C(C)=C/C(=O)O`, in data set [1] (75 µMoles/Kg i.p. corn oil), the “Change in Paw Volume (ml)” value is -0.59* (1.14) ml, the “Change in body weight(g)” value was 11(10) g and the “% Change in plasma fibrinogen” value was -55* %.
As for `CCCCCCCCCOc1cc(C)sc1/C=C/C(C)=C/C=C/C(C)=C/C(=O)O`, in data set [2] (setting [5]), the “Change in Paw Volume (ml)” value is 0.06* (1.03) ml, the “Change in body weight(g)” value is on record as 15(14) g and the “% Change in plasma fibrinogen” value was -25* %.
Consider `CC1=C(/C=C/C(C)=C/C=C/C(C)=C/C(=O)Nc2ccc(O)cc2)C(C)(C)CCC1` [4-hydroxyphenyl retinamide], for which, in data set [3] (no dose given), the hypertriglyceridemia entry is recorded as “hypertriglyceridemia” and the serum cholesterol elevation result is “serum cholesterol elevation”.
On to `CCCCCCCCCOc1ccsc1/C=C/C(C)=C/C=C/C(C)=C/C(=O)O` [the 1st table, row 4], for which the “% Change in Paw Volume (day 23) left” value is reported as -50* % in data set [4] (setting [6]) and -84* % in data set [4] (setting [7]). For the same molecule, the “% Change in Paw Volume (day 23) right” value in data set [4] (setting [6]) was -50* %; in data set [4] (setting [7]) it was -68* %. Moreover, the “% Change in plasma fibrinogen” value is -45* % in data set [4] (setting [6]) and -55* % in data set [4] (setting [7]). Also, the “Body Weight gain(g)” value in data set [4] (25 μ Moles/Kg Po. Tween 80) is on record as 31(37) g; in data set [4] (75 μ Moles/Kg Po. Tween 80) it was 27(30) g. The “Cholesterol (% change)” value in data set [3] (25 μ Moles/Kg Po. Tween 80) is -14* %; in data set [3] (75 μ Moles/Kg Po. Tween 80), -25* %.
As for `CC1=C(/C=C/C(C)=C/C=C/C(C)=C/C(=O)Nc2ccc(O)cc2)C(C)(C)CCC1` [the 1st table, row 6, 4-hydroxyphenyl retinamide, reference compound], in data set [4] (setting [7]), the “% Change in Paw Volume (day 23) left” value is recorded as -51* %, the “% Change in Paw Volume (day 23) right” value is -49* % and the “% Change in plasma fibrinogen” value is given as -42* %. In data set [4] (75 μ Moles/Kg Po. Tween 80), the “Body Weight gain(g)” value was 39(37) g. Further, the “Cholesterol (% change)” value in data set [3] (75 μ Moles/Kg Po. Tween 80) is reported as “+66* %”.
In the case of `CCCCCCCCCOc1ccsc1/C=C/C(C)=C/C=C/C(C)=C/C(=O)O` [the 2nd table, row 3], in data set [2] (25 µMoles/Kg p.o., 7 days), the “Change in Paw Volume (ml)” value was 0.15*(0.84) ml, the “Change in body weight(g)” value is 9(14) g and the “% Change in plasma fibrinogen” value was -32* %. Moreover, in data set [2] (setting [5]), the “Change in Paw Volume (ml)” value is -0.63*(0.61) ml, the “Change in body weight(g)” value is on record as 5*(15) g and the “% Change in plasma fibrinogen” value is listed as -34* %.
As to `CCCCCCCCCOc1ccsc1/C=C/C(C)=C/C=C/C(C)=C/C(=O)O` [the 2nd table, row 5], in data set [1] (10 µMoles/Kg i.p. corn oil), the “Change in Paw Volume (ml)” value is 0.18* (0.86) ml, the “Change in body weight(g)” value is 11(15) g and the “% Change in plasma fibrinogen” value is -18* %.
